A word on the inhibition: it is the relative decrease from the control value, in per cent.

Drawing on patent publication US10245261B2, “Substituted indol-5-ol derivatives and their therapeutic applications” (NantBioScience, Inc., priority 2013, dated 2019), this text covers inhibition for 17 compounds.

Common to all, as to assay: KinaseProfiler kinase assay
What all share (assay type): biochemical

One test has as its target Abl(h) (Homo sapiens, UniProt P00519).
The target in a further test is T1, Aurora-A(h) (Homo sapiens, UniProt O14965).
T1 sequence (O14965 1-403): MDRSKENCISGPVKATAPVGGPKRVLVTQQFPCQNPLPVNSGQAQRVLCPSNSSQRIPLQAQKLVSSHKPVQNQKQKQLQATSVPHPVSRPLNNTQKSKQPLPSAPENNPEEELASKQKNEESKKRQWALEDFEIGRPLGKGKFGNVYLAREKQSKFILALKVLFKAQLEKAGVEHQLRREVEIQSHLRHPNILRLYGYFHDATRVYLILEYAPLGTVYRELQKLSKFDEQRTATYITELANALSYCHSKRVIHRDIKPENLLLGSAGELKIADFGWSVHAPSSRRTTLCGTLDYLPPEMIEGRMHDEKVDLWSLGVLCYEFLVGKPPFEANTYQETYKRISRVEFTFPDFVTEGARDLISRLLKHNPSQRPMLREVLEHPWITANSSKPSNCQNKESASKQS
The settings on record: read-out: % Inhibition @1 μM Auroro-A. On the procedure:
(§1) This example tests the inhibitory properties of representative compounds of the invention in c-Src kinase, Aurora-A kinase, Flt3 kinase, Ret kinase and TrkA Kinase assays (see, Daniele Fancelli et al, J. Med. Chem., 2006, 49 (24), pp 7247-7251). The KinaseProfiler™ Service Assay Protocols (Millipore) was used to test the kinase inhibiting activity of novel compounds from this invention. To do this, the buffer composition was as: 20 mM MOPS, 1 mM EDTA, 0.01% Brij-35, 5% Glycerol, 0.1% β-mercaptoethanol, 1 mg/mL BSA. Test compounds were initially dissolved in DMSO at the desired concentration, then serially diluted to the kinase assay buffer. In a final reaction volume of 25 μL, Aurora-A(h) (5-10 mU) is incubated with 8 mM MOPS pH 7.0, 0.2 mM EDTA, 200 μM LRRASLG (Kemptide), 10 mM MgAcetate and [γ^33P-ATP]. The reaction was initiated by the addition of the MgATP mix. After incubation for 40 minute at room temperature, the reaction was stopped by addition of 5 μL of a 3% phosphoric acid solution. 10 μL of the reaction was then spotted onto a P30 filtermat and washed three times for 5 minutes in 50 mM phosphoric acid and once in methanol prior to drying and scintillation counting. Wells containing substrate but no kinase and wells containing a phosphopeptide control were used to set 0% and 100% phosphorylation value, respectively.
(§2) The Kinase Hotspot℠ kinase assay was also used to test the compounds for IC50 or % inhibitions (Reaction Biology Corp.). Inhibitory IC50 values were determined by titration of compound at the optimal kinase concentration (Kinase EC50).

Another test deals with T2, Flt3(h) (Homo sapiens, UniProt P36888).
T2 sequence (P36888 27-993): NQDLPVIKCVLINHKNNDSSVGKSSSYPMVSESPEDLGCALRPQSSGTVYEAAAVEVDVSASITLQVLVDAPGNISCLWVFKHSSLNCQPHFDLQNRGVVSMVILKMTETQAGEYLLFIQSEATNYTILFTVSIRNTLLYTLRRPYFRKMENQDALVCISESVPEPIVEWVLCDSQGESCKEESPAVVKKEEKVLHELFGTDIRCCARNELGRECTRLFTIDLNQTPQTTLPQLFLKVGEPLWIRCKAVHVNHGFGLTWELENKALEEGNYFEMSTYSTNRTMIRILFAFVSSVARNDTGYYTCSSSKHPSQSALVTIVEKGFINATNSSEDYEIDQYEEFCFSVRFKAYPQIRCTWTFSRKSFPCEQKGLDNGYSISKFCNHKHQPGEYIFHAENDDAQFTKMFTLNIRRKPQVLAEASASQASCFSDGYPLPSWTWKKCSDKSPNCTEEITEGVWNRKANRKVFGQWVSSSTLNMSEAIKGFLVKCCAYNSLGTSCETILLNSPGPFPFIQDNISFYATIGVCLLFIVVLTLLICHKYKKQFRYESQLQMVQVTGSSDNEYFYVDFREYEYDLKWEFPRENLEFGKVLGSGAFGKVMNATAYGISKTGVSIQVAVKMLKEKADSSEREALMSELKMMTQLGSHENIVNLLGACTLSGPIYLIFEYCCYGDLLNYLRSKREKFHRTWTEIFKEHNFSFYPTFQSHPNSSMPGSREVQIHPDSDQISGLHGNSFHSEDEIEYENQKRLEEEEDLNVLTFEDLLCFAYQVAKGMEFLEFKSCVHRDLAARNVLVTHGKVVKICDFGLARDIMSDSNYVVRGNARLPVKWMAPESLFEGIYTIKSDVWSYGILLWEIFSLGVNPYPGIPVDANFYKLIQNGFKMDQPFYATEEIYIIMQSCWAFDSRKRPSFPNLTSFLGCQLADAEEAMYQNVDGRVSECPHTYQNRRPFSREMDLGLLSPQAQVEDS
On the procedure: as §1, §2

A further test has as its target Ret(h) (Homo sapiens, UniProt P07949). The protocol:
as §1, §2

For the next test, the target named is cSRC(h) (Homo sapiens, UniProt P12931). The protocol:
as §1, §2

The next test addresses KDR(h) (Homo sapiens, UniProt P35968).

KDR(h), sequence (P35968 20-1356): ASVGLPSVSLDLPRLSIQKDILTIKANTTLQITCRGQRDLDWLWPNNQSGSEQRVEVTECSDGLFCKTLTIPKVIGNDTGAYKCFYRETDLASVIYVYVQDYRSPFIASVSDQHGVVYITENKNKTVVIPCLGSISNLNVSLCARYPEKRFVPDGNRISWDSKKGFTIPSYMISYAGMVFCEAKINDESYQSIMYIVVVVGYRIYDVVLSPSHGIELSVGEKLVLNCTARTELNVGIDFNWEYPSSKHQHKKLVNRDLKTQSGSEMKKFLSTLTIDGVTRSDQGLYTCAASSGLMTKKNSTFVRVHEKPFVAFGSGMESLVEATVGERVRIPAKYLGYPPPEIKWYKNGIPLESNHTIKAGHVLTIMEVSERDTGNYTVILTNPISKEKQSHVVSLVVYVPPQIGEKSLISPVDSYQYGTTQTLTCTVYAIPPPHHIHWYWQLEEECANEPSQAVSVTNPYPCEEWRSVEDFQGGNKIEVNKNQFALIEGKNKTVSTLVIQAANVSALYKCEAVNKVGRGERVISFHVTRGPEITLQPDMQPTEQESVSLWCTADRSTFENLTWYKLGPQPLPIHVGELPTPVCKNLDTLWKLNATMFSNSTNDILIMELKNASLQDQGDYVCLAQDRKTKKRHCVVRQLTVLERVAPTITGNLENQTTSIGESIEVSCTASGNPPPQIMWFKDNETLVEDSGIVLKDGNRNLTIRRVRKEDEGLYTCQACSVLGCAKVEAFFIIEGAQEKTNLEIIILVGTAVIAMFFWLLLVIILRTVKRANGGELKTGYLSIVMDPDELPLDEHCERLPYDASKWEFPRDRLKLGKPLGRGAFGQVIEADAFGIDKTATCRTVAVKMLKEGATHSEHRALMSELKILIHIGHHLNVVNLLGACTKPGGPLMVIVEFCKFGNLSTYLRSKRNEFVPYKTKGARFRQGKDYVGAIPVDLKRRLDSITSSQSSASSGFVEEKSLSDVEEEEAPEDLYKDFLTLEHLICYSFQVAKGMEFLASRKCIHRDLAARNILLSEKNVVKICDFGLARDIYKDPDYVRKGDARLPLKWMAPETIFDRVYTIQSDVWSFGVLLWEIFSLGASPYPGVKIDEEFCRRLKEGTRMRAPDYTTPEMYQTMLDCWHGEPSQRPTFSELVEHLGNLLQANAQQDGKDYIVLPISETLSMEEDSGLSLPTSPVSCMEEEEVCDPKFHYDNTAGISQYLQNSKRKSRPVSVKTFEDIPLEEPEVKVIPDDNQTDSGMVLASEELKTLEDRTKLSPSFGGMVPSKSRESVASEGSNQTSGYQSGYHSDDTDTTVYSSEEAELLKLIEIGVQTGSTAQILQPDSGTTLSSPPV
Abl(h), sequence (P00519 whole entry): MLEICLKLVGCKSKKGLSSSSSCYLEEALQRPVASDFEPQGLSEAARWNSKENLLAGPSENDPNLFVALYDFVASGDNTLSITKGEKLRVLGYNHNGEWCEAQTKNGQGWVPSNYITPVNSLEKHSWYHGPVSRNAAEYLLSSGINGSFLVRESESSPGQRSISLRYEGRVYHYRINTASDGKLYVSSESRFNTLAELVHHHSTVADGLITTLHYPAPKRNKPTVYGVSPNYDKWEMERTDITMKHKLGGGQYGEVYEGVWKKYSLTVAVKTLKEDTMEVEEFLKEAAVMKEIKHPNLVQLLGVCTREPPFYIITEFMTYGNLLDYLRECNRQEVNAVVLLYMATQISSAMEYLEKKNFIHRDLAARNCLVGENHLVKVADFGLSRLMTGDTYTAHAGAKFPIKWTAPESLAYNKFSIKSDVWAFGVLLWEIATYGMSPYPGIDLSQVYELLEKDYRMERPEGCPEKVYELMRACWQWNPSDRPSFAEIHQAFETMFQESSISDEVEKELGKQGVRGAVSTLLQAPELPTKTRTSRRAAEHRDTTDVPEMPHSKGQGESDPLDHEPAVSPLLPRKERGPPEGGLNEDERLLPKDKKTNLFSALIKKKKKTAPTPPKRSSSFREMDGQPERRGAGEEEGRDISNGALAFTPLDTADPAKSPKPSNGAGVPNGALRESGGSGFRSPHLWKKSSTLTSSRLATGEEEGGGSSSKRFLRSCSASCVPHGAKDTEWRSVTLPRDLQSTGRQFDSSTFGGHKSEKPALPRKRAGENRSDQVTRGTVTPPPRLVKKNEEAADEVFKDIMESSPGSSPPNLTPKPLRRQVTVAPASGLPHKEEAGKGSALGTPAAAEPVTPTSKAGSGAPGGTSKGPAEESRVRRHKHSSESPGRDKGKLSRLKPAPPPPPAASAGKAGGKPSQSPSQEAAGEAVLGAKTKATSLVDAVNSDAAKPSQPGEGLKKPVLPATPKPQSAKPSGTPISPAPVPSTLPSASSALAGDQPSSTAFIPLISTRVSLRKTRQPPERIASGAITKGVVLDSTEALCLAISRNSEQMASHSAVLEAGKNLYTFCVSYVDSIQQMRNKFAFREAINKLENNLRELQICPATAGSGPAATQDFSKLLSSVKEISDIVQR
cSRC(h), sequence (P12931 whole entry): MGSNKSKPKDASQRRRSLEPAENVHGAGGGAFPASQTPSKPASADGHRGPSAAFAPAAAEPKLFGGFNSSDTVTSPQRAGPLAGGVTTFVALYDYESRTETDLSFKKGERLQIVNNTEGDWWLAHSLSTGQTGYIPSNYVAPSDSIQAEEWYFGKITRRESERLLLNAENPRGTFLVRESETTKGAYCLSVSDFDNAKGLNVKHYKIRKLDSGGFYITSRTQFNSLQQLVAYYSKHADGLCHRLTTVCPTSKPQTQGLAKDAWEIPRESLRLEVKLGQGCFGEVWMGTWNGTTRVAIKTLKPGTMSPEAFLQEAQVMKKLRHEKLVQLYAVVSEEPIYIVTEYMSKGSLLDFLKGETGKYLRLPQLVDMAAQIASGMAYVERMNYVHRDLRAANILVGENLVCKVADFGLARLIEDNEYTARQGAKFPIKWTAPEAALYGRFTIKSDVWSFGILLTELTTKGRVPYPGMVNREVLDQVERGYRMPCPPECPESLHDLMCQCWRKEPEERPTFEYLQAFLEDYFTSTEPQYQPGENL
Ret(h), sequence (P07949 29-1114): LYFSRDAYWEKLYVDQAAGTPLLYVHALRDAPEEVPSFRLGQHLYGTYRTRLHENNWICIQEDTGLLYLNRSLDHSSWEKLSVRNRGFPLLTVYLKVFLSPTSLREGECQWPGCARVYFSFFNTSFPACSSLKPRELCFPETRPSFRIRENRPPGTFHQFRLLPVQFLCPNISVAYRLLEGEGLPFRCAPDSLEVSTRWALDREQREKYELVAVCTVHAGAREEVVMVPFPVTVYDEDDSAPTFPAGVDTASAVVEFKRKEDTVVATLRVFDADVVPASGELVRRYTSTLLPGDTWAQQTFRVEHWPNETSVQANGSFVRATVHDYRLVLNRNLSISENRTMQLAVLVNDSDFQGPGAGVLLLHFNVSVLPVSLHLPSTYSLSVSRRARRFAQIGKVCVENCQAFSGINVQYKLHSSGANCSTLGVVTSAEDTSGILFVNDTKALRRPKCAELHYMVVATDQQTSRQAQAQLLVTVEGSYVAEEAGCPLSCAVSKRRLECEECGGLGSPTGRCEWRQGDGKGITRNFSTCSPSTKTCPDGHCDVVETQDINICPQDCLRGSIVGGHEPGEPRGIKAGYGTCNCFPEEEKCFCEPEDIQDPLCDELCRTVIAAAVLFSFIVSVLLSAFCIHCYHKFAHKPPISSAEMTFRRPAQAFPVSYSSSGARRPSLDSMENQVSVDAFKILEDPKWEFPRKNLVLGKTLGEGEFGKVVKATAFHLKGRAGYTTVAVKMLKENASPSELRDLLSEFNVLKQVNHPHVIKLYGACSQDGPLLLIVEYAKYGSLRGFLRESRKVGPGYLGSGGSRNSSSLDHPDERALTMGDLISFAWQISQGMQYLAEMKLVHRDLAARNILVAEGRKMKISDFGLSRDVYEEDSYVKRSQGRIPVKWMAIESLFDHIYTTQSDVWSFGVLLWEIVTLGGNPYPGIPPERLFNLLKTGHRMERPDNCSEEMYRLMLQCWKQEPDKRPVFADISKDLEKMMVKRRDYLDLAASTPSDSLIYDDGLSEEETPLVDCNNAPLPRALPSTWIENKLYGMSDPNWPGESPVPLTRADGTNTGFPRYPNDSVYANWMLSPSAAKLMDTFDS

With `C/C=C/c1cc(Nc2cc(N3CCC(OC)CC3)nc(Oc3ccc4[nH]c(C)cc4c3F)n2)n[nH]1` [Compound 58], the inhibition at 1 µM turned out to be 112% on Abl(h); 90% on Aurora-A(h); 99% on Flt3(h); 102% on Ret(h); 101% against cSRC(h); 96% against KDR(h).

Regarding `Cc1cc2c(F)c(Oc3nc(Nc4cc(C5CC5)[nH]n4)cc(N4CCNC(=O)C4)n3)ccc2[nH]1` [Compound 19], the inhibition at 1 µM was determined as 108% on Abl(h); 100% at Aurora-A(h); 99% on Flt3(h); 100% on Ret(h); 99% against cSRC(h); 93% against KDR(h).

For `C/C=C/c1cc(Nc2cc(N3CCN(S(C)(=O)=O)CC3)nc(Oc3cc(F)c4[nH]c(C)cc4c3F)n2)n[nH]1` [Compound 98], the inhibition at 1 µM at Abl(h) came out at 111%; at Aurora-A(h), 98%; against Flt3(h), 100%; on Ret(h), 102%; against cSRC(h), 100%; on KDR(h), 96%.

On to `Cc1cc2c(F)c(Oc3nc(Nc4cc(C5CC5)[nH]n4)cc(N4CCN(CC(F)(F)F)CC4)n3)ccc2[nH]1` [Compound 38], for which the inhibition at 1 µM is 108% at Abl(h); 80% at Aurora-A(h); 98% at Flt3(h); 101% against Ret(h); 98% against cSRC(h); 95% at KDR(h).

On to `Cc1cc2c(F)c(Oc3nc(Nc4cc(C5CC5)[nH]n4)cc(N4CCN(c5ccccn5)CC4)n3)ccc2[nH]1` [Compound 25], for which the inhibition at 1 µM was found to be 108% against Abl(h); 101% on Aurora-A(h); 100% at Flt3(h); 101% against Ret(h); 100% on cSRC(h); 93% at KDR(h).

With `Cc1cc2c(F)c(Oc3nc(Nc4cc(C5CC5)[nH]n4)cc(N4CCN(C)CC4)n3)cc(F)c2[nH]1` [Compound 81], the inhibition at 1 µM came to 110% against Abl(h); 99% at Aurora-A(h); 101% against Flt3(h); 99% against Ret(h); 99% at cSRC(h); 96% against KDR(h).

Consider `C/C=C/c1cc(Nc2cc(N3CCOCC3)nc(Oc3cc(F)c4[nH]c(C)cc4c3F)n2)n[nH]1` [Compound 89], for which the inhibition at 1 µM turned out to be 112% at Abl(h); 100% on Aurora-A(h); 100% at Flt3(h); 99% against Ret(h); 100% on cSRC(h); 96% against KDR(h).

For the compound `C/C=C/c1cc(Nc2cc(N3CCC(O)CC3)nc(Oc3ccc4[nH]c(C)cc4c3F)n2)n[nH]1` [Compound 59], the inhibition at 1 µM amounted to 112% against Abl(h); 94% on Aurora-A(h); 99% against Flt3(h); 102% on Ret(h); 100% against cSRC(h); 96% against KDR(h).

`C/C=C/c1cc(Nc2cc(N3CCC(O)CC3)nc(Oc3cc(F)c4[nH]c(C)cc4c3F)n2)n[nH]1` [Compound 95]: the inhibition at 1 µM turned out to be 110% at Abl(h); 100% at Aurora-A(h); 100% against Flt3(h); 101% against Ret(h); 100% on cSRC(h); 96% against KDR(h).

On to `C/C=C/c1cc(Nc2cc(N3CCN(CCOC)CC3)nc(Oc3ccc4[nH]c(C)cc4c3F)n2)n[nH]1` [Compound 54], for which the inhibition at 1 µM against Abl(h) was 108%; on Aurora-A(h), 85%; on Flt3(h) it was 99%; against Ret(h) it was 100%; at cSRC(h), 99%; at KDR(h), 96%.

For the compound `Cc1cc2c(F)c(Oc3nc(Nc4cc(C5CC5)[nH]n4)cc(N4CCN(S(C)(=O)=O)CC4)n3)ccc2[nH]1` [Compound 23], the inhibition at 1 µM came out at 108% against Abl(h); 101% on Aurora-A(h); 100% on Flt3(h); 100% against Ret(h); 100% against cSRC(h); 93% against KDR(h).

Regarding `C/C=C/c1cc(Nc2cc(N3CCN(S(C)(=O)=O)CC3)nc(Oc3ccc4[nH]c(C)cc4c3F)n2)n[nH]1` [Compound 55], the inhibition at 1 µM was 110% against Abl(h); 101% at Aurora-A(h); 99% at Flt3(h); 101% against Ret(h); 101% against cSRC(h); 96% against KDR(h).

For `C/C=C/c1cc(Nc2cc(N3CCS(=O)(=O)CC3)nc(Oc3ccc4[nH]c(C)cc4c3F)n2)n[nH]1` [Compound 57], the inhibition at 1 µM was 111% at Abl(h); 96% on Aurora-A(h); 100% at Flt3(h); 102% against Ret(h); 99% against cSRC(h); 95% on KDR(h).

As to `Cc1cc2c(F)c(Oc3nc(Nc4cc(C5CC5)[nH]n4)cc(N4CCC(N(C)C)C4)n3)ccc2[nH]1` (stereo not drawn) [Compound 17], the inhibition at 1 µM is 108% at Abl(h); 100% on Aurora-A(h); 100% on Flt3(h); 98% against Ret(h); 98% at cSRC(h); 93% against KDR(h).

Take `C/C=C/c1cc(Nc2cc(N3CCN(C)CC3)nc(Oc3cc(F)c4[nH]c(C)cc4c3F)n2)n[nH]1` [Compound 87]: the inhibition at 1 µM turned out to be 112% at Abl(h); 99% at Aurora-A(h); 100% against Flt3(h); 83% against Ret(h); 95% on cSRC(h); 95% against KDR(h).

For the compound `C/C=C/c1cc(Nc2cc(N3CCN(CC)CC3)nc(Oc3cc(F)c4[nH]c(C)cc4c3F)n2)n[nH]1` [Compound 99], the inhibition at 1 µM at Abl(h) came out at 113%; at Aurora-A(h), 101%; on Flt3(h), 102%; on Ret(h), 102%; on cSRC(h) it was 103%; against KDR(h) it was 91%.

Turning to `Cc1cc(Nc2cc(N3CCOCC3)nc(Oc3cc(F)c4[nH]c(C)cc4c3F)n2)n[nH]1` [Compound 107], the inhibition at 1 µM at Abl(h) was found to be 111%; on Aurora-A(h) it was 95%; on Flt3(h), 98%; against Ret(h), 99%; against cSRC(h), 96%; against KDR(h), 90%.
